What is called IC50 is the concentration that inhibits the measured activity by half.

≈ marks a conversion by molar mass, not a printed value. Like-named read-outs stand apart in the source and are kept apart here.

This note sets out measurements from patent US20100029761A1, “NOVEL COMPOUNDS, PHARMACEUTICAL COMPOSITIONS CONTAINING SAME, AND METHODS OF USE FOR SAME” (priority 2005, published 2010).

One data set addresses T1, purified human FAS (Homo sapiens, UniProt P49327).
T1 construct: Human FAS was purified from cultured ZR-75-1 human breast cancer cells obtained from the American Type Culture Collection; endogenous in cells; host or cells: ZR-75-1 human breast cancer cells (ATCC); PEG precipitations and Mono Q anion exchange
The data set is described as follows: Measurement of FAS enzymatic activity (malonyl-CoA dependent NADPH oxidation). The class given is biochemical. As for the experimental part:
Human FAS was purified from cultured ZR-75-1 human breast cancer cells obtained from the American Type Culture Collection. The procedure, adapted from Linn et al., 1981, and Kuhajda et al., 1994, utilizes hypotonic lysis, successive polyethyleneglycol (PEG) precipitations, and anion exchange chromatography. ZR-75-1 cells are cultured at 37° C. with 5% CO2 in RPMI culture medium with 10% fetal bovine serum, penicillin and streptomycin.
Ten T150 flasks of confluent cells are lysed with 1.5 ml lysis buffer (20 mM Tris-HCl, pH 7.5, 1 mM EDTA, 0.1 mM phenylmethanesulfonyl fluoride (PMSF), 0.1% Igepal CA-630) and dounce homogenized on ice for 20 strokes. The lysate is centrifuged in JA-20 rotor (Beckman) at 20,000 rpm for 30 minutes at 4° C. and the supernatant is brought to 42 ml with lysis buffer. A solution of 50% PEG 8000 in lysis buffer is added slowly to the supernatant to a final concentration of 7.5%. After rocking for 60 minutes at 4° C., the solution is centrifuged in JA-20 rotor (Beckman) at 15,000 rpm for 30 minutes at 4° C. Solid PEG 8000 is then added to the supernatant to a final concentration of 15%. After the rocking and centrifugation is repeated as above, the pellet is resuspended overnight at 4° C. in 10 ml of Buffer A (20 mM K2HPO4, pH 7.4). After […] filtration, the protein solution is applied to a Mono Q 5/5 anion exchange column (Pharmacia). The column is washed for 15 minutes with buffer A at 1 ml/minute, and bound material is eluted with a linear 60-ml gradient over 60 minutes to 1 M KCl. FAS (MW˜270 kD) typically elutes at 0.25 M KCl in three 0.5 ml fractions identified using 4-15% SDS-PAGE with Coomassie G250 stain (Bio-Rad). FAS protein concentration is determined using the Coomassie Plus Protein Assay Reagent (Pierce) according to manufacturer's specifications using BSA as a standard. This procedure results in substantially pure preparations of FAS (>95%) as judged by Coomassie-stained gels.
FAS activity is measured by monitoring the malonyl-CoA dependent oxidation of NADPH spectrophotometrically at OD340 in 96-well plates (Dils et al and Arslanian et al, 1975). Each well contains 2 μg purified FAS, 100 mM K2HPO4, pH 6.5, 1 mM dithiothreitol (Sigma), and 187.5 μM β-NADPH (Sigma). Stock solutions of inhibitors are prepared in DMSO at 2, 1, and 0.5 mg/ml resulting in final concentrations of 20, 10, and 5 μg/ml when 1 μl of stock is added per well. For each experiment, cerulenin (Sigma) is run as a positive control along with DMSO controls, inhibitors, and blanks (no FAS enzyme) all in duplicate.
The assay is performed on a Molecular Devices SpectraMax Plus Spectrophotometer. The plate containing FAS, buffers, inhibitors, and controls are placed in the spectrophotometer heated to 37° C. Using the kinetic protocol, the wells are blanked on duplicate wells containing 100 μl of 100 mM K2HPO4, pH 6.5 and the plate is read at OD340 at 10 sec intervals for 5 minutes to measure any malonyl-CoA independent oxidation of NADPH. The plate is removed from the spectrophotometer and malonyl-CoA (67.4 μM, final concentration per well) and […] (61.8 μM, final concentration per well) are added to each well except to the blanks. The plate is read again as above with the kinetic protocol to measure the malonyl-CoA dependent NADPH oxidation. The difference between the Δ OD340 for the malonyl-CoA dependent and non-malonyl-CoA dependent NADPH oxidation is the specific FAS activity. Because of the purity of the FAS preparation, non-malonyl-CoA dependent NADPH oxidation is negligible.
The concentration of compound yielding 50% inhibition of FAS is the IC50. Graphs of Δ OD340 versus time are plotted by the SOFTmax PRO software (Molecular Devices) for each compound concentration. Computation of linear regression, best-fit line, r^2, and 95% confidence intervals are calculated using Prism Version 3.0 (Graph Pad Software).

Data set [1] relates to fatty acid synthesis pathway activity in MCF-7 human breast cancer cells. The data set is described as follows: [14C]acetate incorporation into total lipids. The class given is cell-based. The conditions noted are these: for 14C (IC50): [14C]acetate incorporation into lipids; for IC50: Homo sapiens, MCF7, [14C]acetate incorporation into lipids. As for the experimental part: This assay measures the incorporation of [^14C]acetate into total lipids and is a measure of fatty acid synthesis pathway activity in vitro. It is utilized to measure inhibition of fatty acid synthesis in vitro.
MCF-7 human breast cancer cells cultured as above, are plated at 5×10^4 cells per well in 24-well plates. Following overnight incubation, the compounds to be tested, solubilized in DMSO, are added at 5, 10, and 20 μg/ml in triplicate, with lower concentrations tested if necessary. DMSO is added to triplicate wells for a vehicle control. C75 is run at 5 and 10 μg/ml in triplicate as positive controls. After 4 hours of incubation, 0.25 μCi of [^14C]acetate (10 μl volume) is added to each well.
After 2 hours of additional incubation, medium is aspirated from the wells and 800 μl of chloroform:methanol (2:1) and 700 μl of 4 mM MgCl2 is added to each well. Contents of each well are transferred to 1.5 Eppendorf tubes, and spun at full-speed for 2 minutes in a high-speed Eppendorf Microcentrifuge 5415D. After removal of the aqueous (upper) layer, an additional 700 μl of chloroform:methanol (2:1) and 500 μl of 4 mM MgCl2 are added to each tube and then centrifuged for 1 minutes as above. The aqueous layer is removed with a Pasteur pipette and discarded. An additional 400 μl of chloroform:methanol (2:1) and 200 μl of 4 mM MgCl2 are added to each tube, then centrifuged and aqueous layer is discarded. The lower (organic) phase is transferred into a scintillation vial and dried at 40° C. under N2 gas. Once dried, 3 ml of scintillant (APB #NBC5104) is added and vials are counted for ^14C. The Beckman Scintillation counter calculates the average cpm values for triplicates.
The IC50 for the compounds is defined as the concentration of drug leading to a 50% reduction in [^14C]acetate incorporation into lipids compared to controls. This is determined by plotting the average cpm for each inhibitor concentration tested, performing linear regression and computing the best-fit line, r^2 values, and 95% confidence intervals. The average cpm values are computed by the Beckman scintillation counter (Model LS6500) for each compound concentration. Computation of linear regression, best-fit line, r^2, and 95% confidence intervals are calculated using Prism Version 3.0 (Graph Pad Software).

Setting [2] is: marked (SB), abbreviation not defined, read-out: FAS (IC50) (SB) (converted).

T1 sequence (P49327 whole entry): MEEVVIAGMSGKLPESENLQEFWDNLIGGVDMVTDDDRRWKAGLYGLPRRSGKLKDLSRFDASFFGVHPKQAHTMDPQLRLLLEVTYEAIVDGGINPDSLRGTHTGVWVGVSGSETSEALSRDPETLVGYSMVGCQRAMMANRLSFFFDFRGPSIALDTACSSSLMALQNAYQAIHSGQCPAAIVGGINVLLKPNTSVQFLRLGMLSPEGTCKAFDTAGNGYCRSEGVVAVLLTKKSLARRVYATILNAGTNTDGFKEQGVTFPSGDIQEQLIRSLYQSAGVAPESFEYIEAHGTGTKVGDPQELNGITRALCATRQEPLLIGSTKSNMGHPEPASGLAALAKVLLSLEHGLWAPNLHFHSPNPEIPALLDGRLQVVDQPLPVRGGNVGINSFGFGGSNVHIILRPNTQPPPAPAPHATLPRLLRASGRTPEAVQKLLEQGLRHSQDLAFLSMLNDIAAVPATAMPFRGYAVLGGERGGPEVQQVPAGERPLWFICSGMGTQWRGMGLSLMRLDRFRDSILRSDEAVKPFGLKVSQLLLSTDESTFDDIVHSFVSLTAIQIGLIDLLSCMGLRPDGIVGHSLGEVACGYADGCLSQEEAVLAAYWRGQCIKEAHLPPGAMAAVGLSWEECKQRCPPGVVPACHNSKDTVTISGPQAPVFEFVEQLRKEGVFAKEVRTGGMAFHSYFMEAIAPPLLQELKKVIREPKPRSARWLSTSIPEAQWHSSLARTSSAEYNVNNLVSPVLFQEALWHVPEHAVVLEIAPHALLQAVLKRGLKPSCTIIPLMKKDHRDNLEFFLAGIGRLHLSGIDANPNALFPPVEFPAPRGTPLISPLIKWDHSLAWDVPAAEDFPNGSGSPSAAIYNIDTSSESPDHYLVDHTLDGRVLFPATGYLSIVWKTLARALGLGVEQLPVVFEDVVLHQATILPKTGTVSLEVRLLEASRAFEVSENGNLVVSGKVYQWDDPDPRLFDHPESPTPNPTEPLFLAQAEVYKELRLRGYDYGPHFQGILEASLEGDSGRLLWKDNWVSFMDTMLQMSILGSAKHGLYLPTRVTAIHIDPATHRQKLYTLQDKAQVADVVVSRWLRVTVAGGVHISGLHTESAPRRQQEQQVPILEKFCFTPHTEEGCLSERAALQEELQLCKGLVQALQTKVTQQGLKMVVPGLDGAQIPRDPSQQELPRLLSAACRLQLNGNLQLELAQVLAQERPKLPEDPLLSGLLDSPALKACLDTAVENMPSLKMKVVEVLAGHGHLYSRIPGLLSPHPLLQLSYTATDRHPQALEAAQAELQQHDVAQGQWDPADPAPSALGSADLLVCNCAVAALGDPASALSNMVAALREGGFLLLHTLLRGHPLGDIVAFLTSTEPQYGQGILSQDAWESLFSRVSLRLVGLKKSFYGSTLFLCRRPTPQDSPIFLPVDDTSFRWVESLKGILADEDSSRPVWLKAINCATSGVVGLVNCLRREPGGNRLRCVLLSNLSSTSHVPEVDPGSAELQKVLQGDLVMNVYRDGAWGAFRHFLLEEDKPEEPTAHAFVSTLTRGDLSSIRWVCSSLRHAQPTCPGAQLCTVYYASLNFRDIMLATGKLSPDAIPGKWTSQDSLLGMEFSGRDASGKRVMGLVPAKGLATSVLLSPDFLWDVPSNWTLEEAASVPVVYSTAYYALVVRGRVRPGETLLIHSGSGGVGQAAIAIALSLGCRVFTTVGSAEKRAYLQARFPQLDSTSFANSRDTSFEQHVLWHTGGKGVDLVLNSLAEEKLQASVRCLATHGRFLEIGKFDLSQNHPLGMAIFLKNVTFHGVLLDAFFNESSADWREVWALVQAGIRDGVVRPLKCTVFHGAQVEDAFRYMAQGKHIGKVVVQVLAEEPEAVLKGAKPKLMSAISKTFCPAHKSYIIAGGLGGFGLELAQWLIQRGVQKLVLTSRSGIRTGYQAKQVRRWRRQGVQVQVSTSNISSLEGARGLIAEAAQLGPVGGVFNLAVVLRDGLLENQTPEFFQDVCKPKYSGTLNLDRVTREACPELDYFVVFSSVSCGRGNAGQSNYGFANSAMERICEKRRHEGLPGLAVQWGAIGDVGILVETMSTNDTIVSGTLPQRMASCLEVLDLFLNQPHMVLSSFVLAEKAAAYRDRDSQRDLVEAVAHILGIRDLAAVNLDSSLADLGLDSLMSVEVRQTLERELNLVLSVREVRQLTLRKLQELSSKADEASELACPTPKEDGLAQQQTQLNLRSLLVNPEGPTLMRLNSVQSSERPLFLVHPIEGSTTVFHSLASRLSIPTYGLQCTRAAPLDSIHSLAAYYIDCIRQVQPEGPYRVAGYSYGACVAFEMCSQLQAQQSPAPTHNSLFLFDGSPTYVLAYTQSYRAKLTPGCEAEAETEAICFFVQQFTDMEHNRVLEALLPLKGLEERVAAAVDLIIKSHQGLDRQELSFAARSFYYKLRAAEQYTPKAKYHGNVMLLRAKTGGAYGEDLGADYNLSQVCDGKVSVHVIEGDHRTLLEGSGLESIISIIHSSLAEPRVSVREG

Take `CCCCCCCCC1OC(=O)C(OC(=O)OCC)=C1C(=O)OCC` (stereo not shown) [Compound 7]: the IC50 at purified human FAS (setting [2]) was 222 µM. Also, the “14C (IC50)” value in data set [1] is given as “Neg”.

`C=CCOC1=C(C(=O)OCC)C(CCCCCCCC)OC1=O` (stereo not shown) [Compound 6]: on purified human FAS, the “Solubility remark under FAS (IC50)” value is reported as “Solubility problems”. Besides, on purified human FAS (purified human FAS, OD340), the “FAS (IC50)” value is on record as “Neg”. Further, the “14C (IC50)” value in data set [1] is listed as “Neg”.

For `CCCCCCCCC1OC(=O)C(=O)C1C(=O)OCC` (stereo not shown) [Compound 1], the half-maximal inhibitory concentration (IC50) at purified human FAS (purified human FAS, OD340, read-out: FAS (IC50) (converted)) was 65.1 µM; in data set [1] it was 40.7 ± 7.1 µg/mL (≈ 143 µM).

As for `CCCCCCCCC1OC(=O)C(OCC(=O)OCC)=C1C(=O)OCC` (stereo not shown) [Compound 3], the 50% inhibitory concentration (IC50) was 121 µM at purified human FAS (setting [2]) and 30 µg/mL (≈ 81 µM) in data set [1]. For the same molecule, at purified human FAS (purified human FAS, OD340), the “FAS (IC50)” value is reported as “Neg”.

Turning to `CCCCCCCCC1OC(=O)C(OCc2ccccc2)=C1C(=O)OCC` (stereo not shown) [Compound 5], on purified human FAS, the “Solubility remark under FAS (IC50)” value is reported as “Solubility problems”. The “FAS (IC50)” value at purified human FAS (purified human FAS, OD340) was “Neg”. In data set [1], the “14C (IC50)” value is given as “Neg (stim)”.

Turning to `CCCCCCCCC1OC(=O)C(OC)=C1C(=O)OCC` (stereo not shown) [Compound 4], the “Solubility remark under FAS (IC50)” value on purified human FAS is “Solubility problems”. In addition, the “FAS (IC50)” value at purified human FAS (purified human FAS, OD340) is recorded as “Neg”. Besides, in data set [1], the “14C (IC50)” value is “Neg”.

In the case of `CCCCC1OC(=O)C(O)=C1C(=O)OCC` (stereo not shown) [Compound 2], the IC50 at purified human FAS (setting [2]) was 1230 µM. Also, the “FAS (IC50)” value at purified human FAS (purified human FAS, OD340) is on record as “Neg”. In addition, the “14C (IC50)” value in data set [1] is given as “Neg”.
